Tests used:
[1] = test system: Herpes Simplex virus; experiment: Twice-daily coating of open Herpes Simplex lip sores with cyanoacrylate (case reports); assay type: in vivo, human
From the text: A person had open sores on their lower lip from which a clear liquid was exuding. The sores were diagnosed as resulting from the Herpes Simplex virus. Their initial office treatment consisted of swabbing the open sores with n-butyl-cyanoacrylate using a surgical swab until the sores and surrounding tissue were completely covered. They were given a supply of n-butyl-cyanoacrylate and surgical paddles for self-application and instructed on their use. They were cautioned not to close their lips or press them together after applying the n-butyl-cyanoacrylate for two to three minutes so that the coating over the sores would be completely dry.
An individual had open sores on their lip from which a clear liquid was exuding. The sores were diagnosed as Herpes Simplex virus.
An individual had open sores on their lip from which a clear liquid was exuding. The sores were diagnosed as resulting from the Herpes Simplex virus. They were instructed to coat the sores with 2 acetyl cyanoacrylate using a surgical swab until the sores and surrounding tissue were completely covered.
An individual had open sores on their lip from which a clear liquid was exuding. The sores were diagnosed as resulting from the Herpes Simplex virus. They were instructed to coat the sores with octyl-cyanoacrylate using a surgical swab until the sores and surrounding tissue were completely covered.

[2] = test system: Herpes Simplex virus; experiment: Twice-daily coating of a Herpes Simplex prodrome on the lip with cyanoacrylate (case report); assay type: in vivo, human; conditions: itching prodrome on lower lip, topical coating twice daily for three days
From the text: Before the open Herpes sore forms, an area where the sore will form becomes sensitive and itchy, and is known as a prodrome. The application of cyanoacrylate to the prodrome prevents the sore from forming. The cyanoacrylate can also be applied in the same manner as previously described to the prodrome.
A person had itching on their lower lip. The itching was diagnosed as resulting from a prodrome of the Herpes Simplex virus. Their initial office treatment consisted of being told to swab the prodrome with n-butyl-cyanoacrylate using a surgical swab until the prodrome and surrounding tissue were completely covered. They were given a supply of n-butyl-cyanoacrylate and surgical paddles for self-application and instructed on their use.

[3] = topical coating twice daily for three days

Compound	state of the open sores (exudation of clear liquid) at end of treatment [1, 3]	state of the open sores (exudation of clear liquid) at end of treatment ([1]; topical coating twice daily for several days)	outcome of prodrome (sore formation) [2]
C=C(C#N)C(=O)OCCCCCCCC [octyl-cyanoacrylate]	no longer exuding		
2 acetyl cyanoacrylate	no longer exuding		
C=C(C#N)C(=O)OCC [ethyl cyanoacrylate]		no longer exudating	
C=C(C#N)C(=O)OCCCC [n-butyl-cyanoacrylate]	no longer exudating		prodrome disappeared and no sores formed or exuded

Source: patent US20010051179A1, “METHOD FOR PREVENTING THE SPREAD OF INFECTIOUS MICROORGANISMS USING CYANOACRYLATE” (priority 1996, published 2001)
